Patent US10543212B2, “Substituted amines for treating cardiac diseases” (Cardurion Pharmaceuticals, LLC, priority 2017, dated 2020)

biological target: T1, Full-length, GST-tagged, human CaMKIIδ (Homo sapiens, UniProt Q13557); test: CaMKIIδ binding assay (TR-FRET with BODIPY-labeled probe ligand); conditions: CaMKIIδ binding assay, results of Table 2
T1 construct: Full-Length, Glutathione-S-Transferase(GST)-Tagged, Human CaMKIIδ was purchased from Carna Biosciences; purchased Carna Biosciences 02-111
T1 sequence (Q13557 1-478 isoform Q13557-12): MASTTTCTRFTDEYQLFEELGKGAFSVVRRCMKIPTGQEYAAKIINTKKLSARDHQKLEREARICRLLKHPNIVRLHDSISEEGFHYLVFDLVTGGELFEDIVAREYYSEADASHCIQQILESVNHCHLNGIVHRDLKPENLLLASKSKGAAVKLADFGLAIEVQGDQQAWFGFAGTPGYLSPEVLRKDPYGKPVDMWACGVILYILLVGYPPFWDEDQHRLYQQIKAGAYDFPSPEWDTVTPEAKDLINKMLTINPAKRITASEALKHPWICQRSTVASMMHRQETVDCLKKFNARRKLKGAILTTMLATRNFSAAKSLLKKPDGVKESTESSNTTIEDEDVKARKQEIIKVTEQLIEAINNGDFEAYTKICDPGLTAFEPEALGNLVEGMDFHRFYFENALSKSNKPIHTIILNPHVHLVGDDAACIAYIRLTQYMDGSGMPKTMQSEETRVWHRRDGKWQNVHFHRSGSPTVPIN
Summary of the method: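 Compounds were tested as 4-fold, eight-point series for 1 hr at room temperature, and IC50 was obtained by logistic fitting against a 3 μM parent-compound control. Signal came from displacement of a 300 nM BODIPY ligand from 0.5 nM GST-CaMKIIδ, detected via Tb-anti-GST in calmodulin/Ca2+ (pH 7.6).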

Q: C[C@@H](Cn1cnnn1)Oc1cc(-c2cnc(Nc3cn(C4CCN(CC5CC5)CC4)nc3C(F)(F)F)nc2)ccc1Cl [Example 549, (S)-5-(3-((1-(1H-tetrazol-1-yl)propan-2-yl)oxy)-4-chlorophenyl)-N-(1-(1-(cyclopropylmethyl)piperidin-4-yl)-3-(trifluoromethyl)-1H-pyrazol-4-yl)pyrimidin-2-amine] was tested. Which IC50 did it give?
A: < 10 nM

Q: How did the IC50 turn out when C[C@@H](Cn1cnnn1)Oc1cc(-c2cnc(Nc3cn(C4CCN(C5CCOCC5)CC4)nc3C3CC3)nc2)ccc1Cl [Example 545, (S)-5-(3-((1-(1H-tetrazol-1-yl)propan-2-yl)oxy)-4-chlorophenyl)-N-(3-cyclopropyl-1-(1-(tetrahydro-2H-pyran-4-yl)piperidin-4-yl)-1H-pyrazol-4-yl)pyrimidin-2-amine] was run?
A: < 10 nM

Q: Which IC50 does the source give for C[C@@H](Cn1cnnn1)Oc1cc(-c2cnc(Nc3ccc4c(c3)CCN4)nc2)ccc1Cl [Example 451, (S)-N-(5-(3-((1-(1H-tetrazol-1-yl)propan-2-yl)oxy)-4-chlorophenyl)pyrimidin-2-yl)indolin-5-amine] here?
A: 10 to 100 nM

Q: With C[C@@H](Cn1cnnn1)Oc1cc(-c2cnc(Nc3cc4c(cc3Cl)CCN(C3CCOCC3)CC4)nc2)ccc1C#N [Example 538, (S)-2-((1-(1H-tetrazol-1-yl)propan-2-yl)oxy)-4-(2-((8-chloro-3-(tetrahydro-2H-pyran-4-yl)-2,3,4,5-tetrahydro-1H-benzo[d]azepin-7-yl)amino)pyrimidin-5-yl)benzonitrile] as the molecule, how does the IC50 read?
A: < 10 nM

same assay, conditions: CaMKIIδ binding assay; activity class per Table 2

Q: For CC(Cn1cnnn1)Oc1cc(-c2cnc(Nc3cn(C4CCC(O)(CN5CCOCC5)CC4)nc3C(F)(F)F)nc2)ccc1Cl [Example 918, trans-4-(4-((5-(3-(((S)-1-(1H-tetrazol-1-yl)propan-2-yl)oxy)-4-chlorophenyl)pyrimidin-2-yl)amino)-3-(trifluoromethyl)-1H-pyrazol-1-yl)-1-(morpholinomethyl)cyclohexan-1-ol], which IC50 is on record?
A: < 10 nM

Q: Which IC50 does the source give for CC(C)c1nn(C2CC3(CNC3)C2)cc1Nc1ncc(-c2ccc(Cl)c(O[C@@H](C)Cn3cnnn3)c2)cn1 [Example 934, (S)-5-(3-((1-(1H-tetrazol-1-yl)propan-2-yl)oxy)-4-chlorophenyl)-N-(3-isopropyl-1-(2-azaspiro[3.3]heptan-6-yl)-1H-pyrazol-4-yl)pyrimidin-2-amine] here?
A: < 10 nM

Q: How did the IC50 turn out when C[C@@H](Cn1cnnn1)Oc1cc(-c2cnc(Nc3cn(CC4(O)CCN(C5CCOCC5)CC4)nc3OCC(F)(F)F)nc2)ccc1Cl [Example 909, (S)-4-((4-((5-(3-((1-(1H-tetrazol-1-yl)propan-2-yl)oxy)-4-chlorophenyl)pyrimidin-2-yl)amino)-3-(2,2,2-trifluoroethoxy)-1H-pyrazol-1-yl)methyl)-1-(tetrahydro-2H-pyran-4-yl)piperidin-4-ol] was run?
A: < 10 nM

Q: With C[C@@H](Cn1cnnn1)Oc1cc(-c2cnc(Nc3cn([C@H]4C[C@H](N)C4)nc3OCC(F)(F)F)nc2)ccc1Cl [Example 941, 5-(3-(((S)-1-(1H-tetrazol-1-yl)propan-2-yl)oxy)-4-chlorophenyl)-N-(1-(trans-3-aminocyclobutyl)-3-(2,2,2-trifluoroethoxy)-1H-pyrazol-4-yl)pyrimidin-2-amine] as the molecule, how does the IC50 read?
A: < 10 nM

Q: For C[C@@H](Cn1cnnn1)Oc1cc(-c2cnc(Nc3cn([C@H]4C[C@H](N5CCOCC5)C4)nc3OCC(F)(F)F)nc2)ccc1Cl [Example 943, 5-(3-(((S)-1-(1H-tetrazol-1-yl)propan-2-yl)oxy)-4-chlorophenyl)-N-(1-(trans-3-morpholinocyclobutyl)-3-(2,2,2-trifluoroethoxy)-1H-pyrazol-4-yl)pyrimidin-2-amine], which IC50 is on record?
A: < 10 nM

Q: How did the IC50 turn out when Cc1nccc(N2CC3(CC(n4cc(Nc5ncc(-c6ccc(Cl)c(O[C@@H](C)Cn7cnnn7)c6)cn5)c(OCC(F)(F)F)n4)C3)C2)n1 [Example 1000, (S)-5-(3-((1-(1H-tetrazol-1-yl)propan-2-yl)oxy)-4-chlorophenyl)-N-(1-(2-(2-methylpyrimidin-4-yl)-2-azaspiro[3.3]heptan-6-yl)-3-(2,2,2-trifluoroethoxy)-1H-pyrazol-4-yl)pyrimidin-2-amine] was run?
A: < 10 nM

Q: For C[C@@H](Cn1cnnn1)Oc1cc(-c2cnc(Nc3cn(CC4(O)CCN(C)CC4)nc3OCC(F)(F)F)nc2)ccc1Cl [Example 910, (S)-4-((4-((5-(3-((1-(1H-tetrazol-1-yl)propan-2-yl)oxy)-4-chlorophenyl)pyrimidin-2-yl)amino)-3-(2,2,2-trifluoroethoxy)-1H-pyrazol-1-yl)methyl)-1-methylpiperidin-4-ol], which IC50 is on record?
A: < 10 nM

Q: Which IC50 does the source give for [2H]C1(N2CC3(CC(n4cc(Nc5ncc(-c6ccc(Cl)c(O[C@@H](C)Cn7cnnn7)c6)cn5)c(OCC(F)(F)F)n4)C3)C2)CCOCC1 [Example 944, 5-(4-chloro-3-{[(2S)-1-(1H-tetrazol-1-yl)propan-2-yl]oxy}phenyl)-N-(1-{2-[(4-^2H)tetrahydro-2H-pyran-4-yl]-2-azaspiro[3.3]heptan-6-yl}-3-(2,2,2-trifluoroethoxy)-1H-pyrazol-4-yl)pyrimidin-2-amine] here?
A: < 10 nM

same assay, conditions: Table 2; CaMKIIδ binding assay, activity given as class A/B/C

Q: For C[C@@H](Cn1cnnn1)Oc1cc(-c2cnc(Nc3cn(C4CCNCC4)nc3OCC(F)F)nc2)ccc1Cl [Example 791, (S)-5-(3-((1-(1H-tetrazol-1-yl)propan-2-yl)oxy)-4-chlorophenyl)-N-(3-(2,2-difluoroethoxy)-1-(piperidin-4-yl)-1H-pyrazol-4-yl)pyrimidin-2-amine], which IC50 is on record?
A: < 10 nM

Q: Which IC50 does the source give for C[C@@H](Cn1cnnn1)Oc1cc(-c2cnc(Nc3cn([C@H]4CC[C@@H](N5CCOCC5)CC4)nc3OCC(F)(F)F)nc2)ccc1F [Example 814, 5-(3-(((S)-1-(1H-tetrazol-1-yl)propan-2-yl)oxy)-4-fluorophenyl)-N-(1-(cis-4-morpholinocyclohexyl)-3-(2,2,2-trifluoroethoxy)-1H-pyrazol-4-yl)pyrimidin-2-amine] here?
A: 10 to 100 nM

Q: C[C@@H](Cn1cc(F)cn1)Oc1cc(-c2cnc(Nc3cn([C@H]4CC[C@H](N5CCOCC5)CC4)nc3OCC(F)(F)F)nc2)ccc1C#N [Example 830, 2-(((S)-1-(4-fluoro-1H-pyrazol-1-yl)propan-2-yl)oxy)-4-(2-((1-(trans-4-morpholinocyclohexyl)-3-(2,2,2-trifluoroethoxy)-1H-pyrazol-4-yl)amino)pyrimidin-5-yl)benzonitrile] was tested. Which IC50 did it give?
A: < 10 nM

Q: With C[C@@H](Cn1cnnn1)Oc1cc(-c2cnc(Nc3cn([C@H]4CC[C@H](N5CCC[C@H]5CO)CC4)nc3OC[C@@H]3CC3(F)F)nc2)ccc1Cl [Example 871, ((S)-1-(trans-4-(4-((5-(3-(((S)-1-(1H-tetrazol-1-yl)propan-2-yl)oxy)-4-chlorophenyl)pyrimidin-2-yl)amino)-3-(((S)-2,2-difluorocyclopropyl)methoxy)-1H-pyrazol-1-yl)cyclohexyl)pyrrolidin-2-yl)methanol] as the molecule, how does the IC50 read?
A: < 10 nM

Q: For Cc1ccc(-c2cnc(Nc3cn([C@H]4CC[C@@H](N5CCOCC5)CC4)nc3C(F)(F)F)nc2)cc1O[C@@H](C)Cn1cnnn1 [Example 809, 5-(3-(((S)-1-(1H-tetrazol-1-yl)propan-2-yl)oxy)-4-methylphenyl)-N-(1-(cis-4-morpholinocyclohexyl)-3-(trifluoromethyl)-1H-pyrazol-4-yl)pyrimidin-2-amine], which IC50 is on record?
A: 10 to 100 nM

Q: For C[C@@H](Cn1cnnn1)Oc1cc(-c2cnc(Nc3cn([C@H]4CC[C@@H](N5CC6(COC6)C5)CC4)nc3C(F)(F)F)nc2)ccc1Cl [Example 823, 5-(3-(((S)-1-(1H-tetrazol-1-yl)propan-2-yl)oxy)-4-chlorophenyl)-N-(1-(cis-4-(2-oxa-6-azaspiro[3.3]heptan-6-yl)cyclohexyl)-3-(trifluoromethyl)-1H-pyrazol-4-yl)pyrimidin-2-amine], which IC50 is on record?
A: < 10 nM

Q: Which IC50 does the source give for C[C@@H](Cn1cnnn1)Oc1cc(-c2cnc(Nc3cn(C)nc3OCC(F)(F)F)nc2)ccc1Cl [Example 759, (S)-5-(3-((1-(1H-tetrazol-1-yl)propan-2-yl)oxy)-4-chlorophenyl)-N-(1-methyl-3-(2,2,2-trifluoroethoxy)-1H-pyrazol-4-yl)pyrimidin-2-amine] here?
A: < 10 nM

Q: For C[C@@H](Cn1cnnn1)Oc1cc(-c2cnc(Nc3ccn(C)n3)nc2)ccc1Cl [Example 755, (S)-5-(3-((1-(1H-tetrazol-1-yl)propan-2-yl)oxy)-4-chlorophenyl)-N-(1-methyl-1H-pyrazol-3-yl)pyrimidin-2-amine], which IC50 is on record?
A: 10 to 100 nM

same assay, conditions: Table 2; activity class for CaMKIIδ

Q: With C[C@@H](Cn1cnnn1)Oc1cc(-c2cnc(Nc3cn(C4CN(C5CCOCC5)C4)nc3C(F)(F)F)nc2)ccc1Cl [Example 698, (S)-5-(3-((1-(1H-tetrazol-1-yl)propan-2-yl)oxy)-4-chlorophenyl)-N-(1-(1-(tetrahydro-2H-pyran-4-yl)azetidin-3-yl)-3-(trifluoromethyl)-1H-pyrazol-4-yl)pyrimidin-2-amine] as the molecule, how does the IC50 read?
A: < 10 nM

Q: For C[C@@H](Cn1cnnn1)Oc1cc(-c2cnc(Nc3ccn(C(C)(C)C)n3)nc2)ccc1Cl [Example 715, (S)-5-(3-((1-(1H-tetrazol-1-yl)propan-2-yl)oxy)-4-chlorophenyl)-N-(1-(tert-butyl)-1H-pyrazol-3-yl)pyrimidin-2-amine], which IC50 is on record?
A: ≥ 100 nM

Q: With C[C@@H](Cn1cnnn1)Oc1cc(-c2cnc(Nc3cn(CC4CN(C(=O)OC(C)(C)C)C4)nc3C(F)(F)F)nc2)ccc1Cl [Example 596, tert-butyl (S)-3-((4-((5-(3-((1-(1H-tetrazol-1-yl)propan-2-yl)oxy)-4-chlorophenyl)pyrimidin-2-yl)amino)-3-(trifluoromethyl) -1H-pyrazol-1-yl)methyl)azetidine-1-carboxylate] as the molecule, how does the IC50 read?
A: ≥ 100 nM

Q: For C[C@@H](Cn1cnnn1)Oc1cc(-c2cnc(Nc3cn(CCOCCO)nc3C(F)(F)F)nc2)ccc1Cl [Example 620, (S)-2-(2-(4-((5-(3-((1-(1H-tetrazol-1-yl)propan-2-yl)oxy)-4-chlorophenyl)pyrimidin-2-yl)amino)-3-(trifluoromethyl)-1H-pyrazol-1-yl)ethoxy)ethan-1-ol], which IC50 is on record?
A: 10 to 100 nM
